# According to patent US10596184B2, “Aza-heteroaryl compounds as PI3K-gamma inhibitors” (Incyte Corporation, priority 2015, dated 2020):
# Like-named read-outs stand apart in the source and are kept apart here.
# Tested on: Phosphorylated Ribosomal Protein S6 (RPS6) in THP-1 cells
# Assay: THP-1 RPS6 ELISA Assay
# Type: cell-based, Human
# Conditions: 2 hours with compound, then 10 nM MCP-1 for 15 minutes, read-out: THP p-RPS6 ELISA IC50
# Procedure: To measure the Phosphorylated Ribosomal Protein S6 (RPS6) in cell lysates, THP-1 cells (Human Acute Monocytic Leukemia) are purchased from ATCC (Manassas, Va.) and maintained in RPMI with 10% FBS (Gibco/Life Technologies, Carlsbad, Calif.). For the assay, THP-1 cells are serum starved overnight in RPMI, then plated in RPMI (2×10^5 cells/well in 90 μL) into 96-well flat-bottom tissue culture treated plates (Corning, Corning, N.Y.), in the presence or absence of a concentration range of test compounds. Covered plates are incubated for 2 hours at 37° C., 5% CO2 then treated with or without 10 nM MCP-1 (MYBioSource, San Diego, Calif.) for 15 minutes at 37° C., 5% CO2. Plates are centrifuged at 1600 RPM and supernatants are removed. Cells are lysed in Lysis Buffer (Cell Signaling, Danvers, Mass.) with Protease Inhibitor (Calbiochem/EMD, Germany), PMSF (Sigma, St Louis Mo.), HALTS (Thermo Fisher, Rockford, Ill.) for 30 min on wet ice. Cell lysates are frozen at −80° C. before testing. The lysates are tested in the Human/Mouse/Rat Phospho-RPS6 ELISA (R&D Systems, Inc. Minn, Minn.). The plate is measured using a microplate reader (SpectraMax M5—Molecular Devices, LLC Sunnyvale, Calif.) set to 450 nm with a wavelength correction of 540. […]
SMILES,IC50 (Homo sapiens),IC50
"CCS(=O)(=O)Nc1cncc(-c2ccc3nc(-c4nc(C)c(C)[nH]4)oc3c2)c1 [Example 63, N-(5-(2-(4,5-Dimethyl-1H-imidazol-2-yl)benzo[d]oxazol-6-yl)pyridin-3-yl)ethanesulfonamide bis(trifluoroacetate)]",< 5 µM,–
"CN1CCN(S(=O)(=O)Nc2cncc(-c3ccc4nc(-c5nc6ccccc6[nH]5)oc4c3)c2)CC1 [Example 31, N-(5-(2-(1H-Benzofdlimidazol-2-yl)benzo[d]oxazol-6-yl)pyridin-3-yl)-4-methylpiperazine-1-sulfonamide]",–,< 1 µM
